For this experiment, the target named is BACE2 enzyme ectodomain (Homo sapiens (Human), UniProt Q9Y5Z0). Briefly: Fluorescent-peptide cleavage assay for BACE2 inhibition. Format: biochemical. The note with it: assay b): fluorescent-peptide cleavage, pH 4.5 (superscript b). As to the method:
b) Fluorescent-Peptide Cleavage Assay for BACE2 Inhibition
BACE2 enzyme ectodomain (derived from plasmid “pET17b-T7-hu proBACE2”) was prepared as described in Ostermann et al., “Crystal Structure of Human BACE2 in Complex with a Hydroxyethylamine Transition-state Inhibitor”, Journal of Molecular Biology 2006, 355, 249-261. The pro-enzyme was stored at 4° C. at a concentration of 70 μg/ml.
A fluorescent peptide with the amino acid sequence WS EVNLD AEFRC-MR121 was synthesised and a stock solution of 1.5 mM in DMSO prepared and stored at −20° C. MR121 is a fluorophore with an excitation wavelength of 630 nm and emission wavelength of 695 nm. The MR121 fluorescence is quenched by the N-terminal tryptophan until the peptide is cleaved by BACE2.
Assays were all made in a Corning 384-well black polystyrene non-binding surface microtitre plate with clear flat bottom and using a Plate:Vision (Perkin Elmer) fluorescence reader. To perform the assay an 80 nM solution of BACE2 was prepared in assay buffer (assay buffer is 100 mM Na-acetate; 20 mM EDTA; 0.05% BSA; pH 4.5) and incubated at room temperature for 1 hour to activate the enzyme. 39 μl of the activated BACE2 was placed in each assay well, followed by 1 μl compound to be tested at an appropriate concentration in 100% DMSO. The plate was then mixed and incubated for 10 minutes at room temperature. To start the assay, 10 μl of a 1.5 μM solution fluorescent peptide in assay buffer was added and the fluorescence intensity in the assay mixture measured at 695 nm with an excitation wavelength of 630 nm for 30 minutes.
The assay readout is the rate of change of fluorescence intensity giving a relative measure of BACE2 activity. Small values correspond to high inhibition and larger values to low inhibition. To determine IC50 values (i.e. the concentration inhibiting the enzyme activity by 50%) of the compound for BACE2, typically, 15 assays were made with a range of concentrations chosen empirically to give low, high and intermediate inhibition of the protease. IC50 values were determined using these assay values generated for a range of inhibitor concentrations and the curve fitting software XLfit (IDBS) using the Sigmoidal Dose-Response Model.

BACE2 enzyme ectodomain, sequence (Q9Y5Z0 63-473): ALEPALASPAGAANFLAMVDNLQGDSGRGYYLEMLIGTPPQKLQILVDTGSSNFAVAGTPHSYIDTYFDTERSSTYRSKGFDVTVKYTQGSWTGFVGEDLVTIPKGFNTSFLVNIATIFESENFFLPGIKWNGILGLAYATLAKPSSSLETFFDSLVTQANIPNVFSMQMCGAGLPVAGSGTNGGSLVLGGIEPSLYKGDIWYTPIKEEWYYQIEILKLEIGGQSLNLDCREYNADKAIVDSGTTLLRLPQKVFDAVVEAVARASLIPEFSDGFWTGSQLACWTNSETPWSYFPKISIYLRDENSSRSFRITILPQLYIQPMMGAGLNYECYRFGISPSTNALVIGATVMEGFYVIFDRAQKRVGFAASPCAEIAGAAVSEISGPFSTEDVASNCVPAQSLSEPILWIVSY

Usually IC50 stands for the midpoint of a concentration-inhibition curve. A low value points to greater potency in that assay. `CN1C(=O)C(C)(C)[C@@](C)(c2cc(Nc3ccc(Cl)nc3)ccc2F)N=C1N` [Example 176, (S)-2-Amino-6-(5-(6-chloropyridin-3-ylamino)-2-fluorophenyl)-3,5,5,6-tetramethyl-5,6-dihydropyrimidin-4(3H)-one]: the IC50 stood at 130 nM.
